Experimental findings from patent US12692267B2 (Madera Therapeutics, LLC, priority 2019, dated 2026) are described below.

Each structure is given as a SMILES string. Where two headings read alike, the source gives them in different places. Where only a bound is given, the exact number is not on record here.

In assay [1] the test system is HCT116 (human colon cancer). Put plainly: Cancer cell viability, CCK-8, HCT116. It counts as cell-based. As to conditions: for IC50: read-out: IC50 (uM, HCT116); for EC50: read-out: EC50 (uM, HCT116). On the procedure: (§1) Cancer cell lines. […] The plate is incubated for 48 hours.
(§2) CCK-8 solution is added directly to the cells.

For assay [2], the system named is MDA-MB-231 (MDA 231, human breast adenocarcinoma). Put plainly: Cancer cell viability, CCK-8, MDA-MB-231. It counts as cell-based. The settings on record: for IC50: read-out: IC50 (uM, MDA 231); for EC50: read-out: EC50 (uM, MDA 231). The procedure: as §1, §2
The target of assay [3] is recombinant human caseinolytic peptidase hClpP (Homo sapiens, UniProt Q16740). Kind of assay: hClpP peptide hydrolysis assay (Ac-WLA-AMC). The settings on record: for Dose-dependency of hClpP activation: Protocol 2, purified hClpP, Ac-WLA-AMC; for Time course of hClpP activity: 1 uM, Protocol 2.
recombinant human caseinolytic peptidase hClpP, sequence (Q16740 57-277): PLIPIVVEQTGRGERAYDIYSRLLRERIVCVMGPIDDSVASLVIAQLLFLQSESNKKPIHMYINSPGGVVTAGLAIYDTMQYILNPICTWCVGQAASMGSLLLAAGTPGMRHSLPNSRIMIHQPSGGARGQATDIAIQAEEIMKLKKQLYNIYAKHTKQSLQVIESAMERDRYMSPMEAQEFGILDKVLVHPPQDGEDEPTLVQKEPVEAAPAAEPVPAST
Method: Briefly, the activity of recombinant hClpP proteolytic subunit (1 μg/mL) was measured in the assay buffer composed of 50 mM Tris, 10 mM MgCl2, 100 mM KCl, 1 mM DTT, 4 mM ATP, 0.02% Triton X-100 and 5% Glycerol, pH 8.0 (HCl) using 10 µM of fluorogenic Ac-WLA-AMC substrate as described in references above. […] Using the first protocol (Protocol 1), the reaction was initiated by immediately mixing enzyme and substrate in the presence of indicated doses of compounds. Applying a second protocol (Protocol 2), the enzyme and compounds were mixed and incubated in assay buffer for 60 min before initiating the reaction by adding Ac-WLA-ACM substrate.
Enzymatic activity of hClpP was measured in assay buffer (as described in Experimental Procedure/Materials and Methods) and the level of fluorescence of liberated coumarin monitored continuously.
The next assay deals with ALAS1 (SEQ ID NO. 2). Put plainly: ALAS1 Western blotting time courses (FIG. 15-17). The settings on record: Ex. 85 at 50 nM; 30 minute, sustained over 24 hrs.
In another assay the target is T1, hClpP (Homo sapiens, UniProt Q16740).
T1 construct: endogenous in cells; host or cells: HeLa cell lysate
T1 sequence (Q16740 57-277): as above
Kind of assay: hClpP binding to immobilized compound Sepharose beads, Western blot. Background: Immunoblotting shows a protein as a band on a membrane.

In assay [4] the test system is AN3CA (human uterine cancer). Put plainly: Cell viability CCK8, 72 hours, AN3CA. Type of assay: cell-based. The settings on record: AN3-CA, 72 hours of drug incubation. On the procedure: (§3) For cancer cell lines, AN3CA (human uterine/endometrial cancer, Van Nyen, T. et al Int. J. Mol. Sci. 2018, 19, 2348 and referenced cited therein) cell line and Capan-2 (human pancreatic adenocarcinoma) cell line additional details for testing are as follows. Using 96 well cell culture plate (Corning Costar, Cat #3599), after addition of the test compound (Example 65, or other) the plate is incubated at 37° C., 5% CO2 for 72 hours. Cell viability was determined using CCK8 assay by adding […] of CCK8 into the assay well, incubate the plate for 2 hours and record […] using a SpectraMax i3X reader. Other 72 hour incubation studies can also using these details in addition to other experimental details described herein.
(§4) Example 65 was examined in AN3CA (human uterine cancer) and Capan-2 (human pancreatic adenocarcinoma) cancer cell lines.

For assay [5], the system named is Capan-2 (human pancreatic adenocarcinoma). Put plainly: Cell viability CCK8, 72 hours, Capan-2. It counts as cell-based. The settings on record: 72 hours of drug incubation. On the procedure:
as §3, §4

The test system of assay [6] is SUM159 triple negative breast cancer cells. Kind of assay: Immunoblot of mitochondrial proteins, SUM159 (FIG. 12). Type of assay: cell-based. The settings on record: SUM159, 100 nM, 3-48 hrs. The procedure:
(§5) Immunoblot of SUM159 or MDA-MB-231 cells following 0.1% DMSO (48 hrs) or 100 nM Ex. 65 for indicated timepoints (3-48 hrs) for indicated proteins.

Assay [7] deals with MDA-MB-231 triple negative breast cancer cells. Kind of assay: Immunoblot of mitochondrial proteins, MDA-MB-231 (FIG. 12). It counts as cell-based. As to conditions: MDA-MB-231, 100 nM, 3-48 hrs. The procedure:
as §5

Another assay relates to ClpX and TUFM. Kind of assay: ClpX and TUFM Western blots in SUM159 cells (FIG. 5). The settings on record: concentration response and time course.
The test system of a further assay is SUM159, ClpP CRISPR KO. Put plainly: Growth of SUM159 versus SUM159 ClpP CRISPR KO cells (FIG. 6). As to conditions: SUM159 ClpP CRISPR KO compared to SUM159.
Setting [8] is: Homo sapiens, HCT-116, 48 h, HCT116, 48 hours, CCK-8.
Setting [9] is: Homo sapiens, MDA-MB-231, MDA 231, 48 hours, CCK-8.

For `O=C1C2=C(CCN(Cc3cccc(OC(F)(F)F)c3)C2)N2CCN=C2N1Cc1ccc(C(F)(F)F)cc1` [Example 3], the IC50 in assay [1] (HCT116, 48 hours, CCK-8) came to 0.36 µM; in assay [2] (MDA 231, 48 hours, CCK-8) it was 0.27 µM.
For `Cc1nc2c(c(=O)n1Cc1ccc(Cl)cc1)CN(Cc1cccc(C#N)c1)CC2` [Example 61, 3-({3-[(4-chlorophenyl)methyl]-2-methyl-4-oxo-3H,4H,5H,6H,7H,8H-pyrimidin-6-yl}methyl)benzonitrile], the EC50 in assay [1] (setting [8]) was determined as 0.097 µM; in assay [2] (setting [9]), 0.096 µM.
On to `N#Cc1cccc(CN2CCC3=C(C2)C(=O)N(Cc2ccc(C(F)(F)F)cc2)C2=NCCCN23)c1` [Ex. 62, 3-[(8-oxo-9-{[4-(trifluoromethyl)phenyl]methyl}-1,5,9,11-tetraazatricyclo[8.4.0.0^2,7]tetradeca-2(7),10-dien-5-yl)methyl]benzonitrile], for which the EC50 was determined as 0.022 µM in assay [1] (setting [8]) and 0.021 µM in [2] (setting [9]). Besides, the “Dose-dependency of hClpP activation” value in [3] is listed as “Dose-dependent increases in hClpP activity”.
As to `Cn1c2c(c(=O)n(Cc3ccc(C(F)(F)F)cc3)c1=O)CN(Cc1cccc(Cl)c1)CC2` [Example 56], the EC50 amounted to 0.098 µM in assay [1] (HCT116, 48 hours, CCK-8) and 0.29 µM in [2] (MDA 231, 48 hours, CCK-8).
Turning to `Cn1c2c(c(=O)n(Cc3cccc(C(F)(F)F)c3)c1=O)CN(Cc1ccccc1)CC2` [Example 39], the values for the EC50 in [1] (setting [8]) and in [2] (setting [9]) were 1.4 µM and 1.1 µM, respectively.
Take `N#Cc1cccc(CN2CCc3cnn(Cc4ccc(Cl)cc4)c(=O)c3C2)c1` [Example 85, 3-((3-(4-chlorobenzyl)-4-oxo-3,5,7,8-tetrahydropyrido[3,4-d]pyridazin-6 (4H)-yl)methyl)benzonitrile]: the EC50 in assay [1] (setting [8]) was found to be 0.008 µM; in assay [2] (setting [9]), 0.003 µM. Moreover, in the assay with ALAS1 (SEQ ID NO. 2), the “ALAS1 protein level (FIG. 16)” value is given as “rapidly degraded”.
As for `N#Cc1cccc(Cc2nnc(C(=O)NCc3ccc(Cl)cc3)o2)c1` [Example 63, N-[(4-chlorophenyl)methyl]-5-[(3-cyanophenyl)methyl]-1,3,4-oxadiazole-2-carboxamide], the EC50 in [1] (setting [8]) was determined as 4 µM; in assay [2] (setting [9]) it was 5 µM.
On to `O=C1C2=C(CN(Cc3ccccc3)C2)N2CCN=C2N1Cc1ccc(C(F)(F)F)cc1` [Example 82, 4-benzyl-8-{[4-(trifluoromethyl)phenyl]methyl}1,4,8,10-tetraazatricyclo[7.3.0.0^2,6]dodeca-2 (6), 9-diene-7-one], for which, in assay [1] (setting [8]), the EC50 came to 0.01 µM. For the same molecule, the “Time course of hClpP activity” value in assay [3] is given as “time-dependent increase in hClpP activity”.
For `N#Cc1cccc(CN2CCC3=C(C2)C(=O)N(Cc2ccc(Br)cc2)C2=NCCCN23)c1` [Example 84, 3-({9-[(4-bromophenyl)methyl]-8-oxo-1,5,9,11-tetraazatricyclo[8.4.0.0 ^2,7]tetradeca-2(7), 10-dien-5yl}methyl)benzonitrile] the same measures were 0.013 µM and “time-dependent increase in hClpP activity”.
For `N#Cc1cccc(CN2CCC3=C(C2)C(=O)N(Cc2ccc(Cl)cc2)C2=NCCCN23)c1` [Example 83, 3-({9-[(4-chlorophenyl)methyl]-8-oxo-1,5,9,11-tetraazatricyclo[8.4.0.0 ^2,7]tetradeca-2(7), 10-dien-5yl}methyl)benzonitrile] the same measures were 0.28 µM and “time-dependent increase in hClpP activity”.
Turning to `N#Cc1cccc(CN2CCc3c(c(=O)n(Cc4ccc(C(F)(F)F)cc4)c(=O)n3CCCN)C2)c1` [Ex. 57, 3-((1-(3-aminopropyl)-2,4-dioxo-3-(4-(trifluoromethyl)benzyl)-1,2,3,4,7,8-hexahydropyrido[4,3-d]pyrimidin-6 (5H)-yl)methyl)benzonitrile], the EC50 in [1] (setting [8]) came to 0.057 µM. Further, at hClpP, the “hClpP binding to compound coupled to Sepharose beads” value is listed as “directly binds”. For the same molecule, the “Dose-dependency of hClpP activation” value in assay [3] is listed as “dose-dependent increases in hClpP activity”.
On to `N#Cc1cccc(CN2CCc3ncn(Cc4ccc(Cl)cc4)c(=O)c3C2)c1` [Example 65], for which the EC50 in [1] (setting [8]) came out at 0.021 µM. For the same molecule, the figures for the IC50 in assay [4] and in assay [5] were 1 nM and below 50 nM, respectively. Further, the Mitochondrial protein degradation entry in [6] and in assay [7] was “induces degradation of mitochondrial proteins in a time dependent manner” each time. The “Dose-dependency of hClpP activation” value in assay [3] was “Dose-dependent increases in hClpP activity”.
For the molecule `O=C(NCc1ccc2c(c1)OCO2)c1nnc(Cc2ccc(F)cc2Cl)o1` [Ex. 1, reference compound], the “Dose-dependency of hClpP activation” value in assay [3] is given as “dose-dependent increases in hClpP activity”.
On to `N#Cc1cccc(CC2CCC3=C(C2)C(=O)N(Cc2ccc(Cl)cc2)C2=NCCN23)c1` (centres unmarked) [Ex. 68, 3-({4-[(4-chlorophenyl)methyl]-5-oxo-1H,2H,4H,5H,6H,7H,8H,9H-imidazo[1,2-a]quinazolin-7-yl}methyl)benzonitrile], for which the EC50 in [1] (setting [8]) turned out to be 1.5 µM. The “Dose-dependency of hClpP activation” value in assay [3] is “Dose-dependent increases in hClpP activity”.
`O=C1C2=C(CCN(Cc3cccc(Cl)c3)C2)N2CCN=C2N1Cc1ccc(C(F)(F)F)cc1` [Example 27]: the IC50 in [1] (setting [8]) and in assay [2] (setting [9]) was 0.016 µM each time.
For `Cc1ccccc1CN1C(=O)C2=C(CCN(Cc3ccccc3)C2)N2CCN=C12` [ONC201, reference compound], in assay [1] (Homo sapiens, HCT-116, 48 h), the EC50 stood at 2.8 µM and the IC50 stood at 2.8 µM. Also, in assay [2] (Homo sapiens, MDA-MB-231, 48 h), the EC50 was found to be 3 µM and the IC50 amounted to 3 µM. Besides, in the assay with ClpX and TUFM, the “ClpX and TUFM protein level” value was “reduction of the protein ClpX and TUFM”.
With `Cn1c2c(c(=O)n(Cc3ccc(Cl)cc3)c1=O)CN(Cc1cccc(C#N)c1)CC2` [TR57], the “ClpX and TUFM protein level” value with ClpX and TUFM is “reduction of the protein ClpX and TUFM”. Moreover, the “Effect on growth of ClpP CRISPR knockout cells” value in the assay with SUM159, ClpP CRISPR KO is given as “resistant”.
With `O=C1C2=C(CN(Cc3ccccc3)C2)N2CCN=C2N1Cc1ccc(Br)cc1` [Example 81, 4-benzyl-8-[(4-bromophenyl)methyl]1,4,8,10-tetraazatricyclo[7.3.0.0^2,6]dodeca-2 (6),9-diene-7-one], in [1] (setting [8]), the EC50 worked out at 0.039 µM. For the same molecule, the “Time course of hClpP activity” value in assay [3] is given as “time-dependent increase in hClpP activity”.
For `N#Cc1cccc(CN2CC3=C(C2)N2CCN=C2N(Cc2ccc(Cl)cc2)C3=O)c1` [Ex. 66], the EC50 in [1] (setting [8]) amounted to 0.0055 µM. For the same molecule, the “Dose-dependency of hClpP activation” value in [3] is reported as “Dose-dependent increases in hClpP activity”.
Consider `N#Cc1ccc(CN2CCC3=C(C2)C(=O)N(Cc2ccc(Cl)cc2)C2=NCCN23)cc1` [Example 22], for which the IC50 in [1] (setting [8]) was 1.8 µM; in [2] (setting [9]), 3.4 µM.
For `N#Cc1cccc(CC2CCC3=C(C2)C(=O)N(Cc2ccc(C(F)(F)F)cc2)C2=NCCN23)c1` (centres unmarked) [Ex. 67, 3-[(5-oxo-4-{[4-(trifluoromethyl)phenyl]methyl}-1H,2H,4H,5H,6H,7H,8H,9H-imidazo[1,2-a]quinazolin-7-yl)methyl]benzonitrile], the EC50 in [1] (setting [8]) was 1.2 µM. For the same molecule, the “Dose-dependency of hClpP activation” value in assay [3] is “Dose-dependent increases in hClpP activity”.
Take `O=C1C2=C(CN(Cc3ccccc3)C2)N2CCN=C2N1Cc1ccc(Cl)cc1` [Example 80, 4-benzyl-8-[(4-chlorophenyl)methyl]1,4,8,10-tetraazatricyclo[7.3.0.0^2,6]dodeca-2 (6),9-diene-7-one]: the EC50 in assay [1] (setting [8]) was 0.011 µM. In addition, the “Time course of hClpP activity” value in assay [3] is given as “time-dependent increase in hClpP activity”.

As a reminder, the IC50 is the concentration that inhibits the measured activity by half. By EC50 is commonly meant the concentration at which the effect is half-maximal.
